Tests used:
Assay in all cases: relative viability (nuclei count vs DMSO), 5 days (fraction); higher = more cells survive
GSK-J4 + Luminespib = compound: CCOC(=O)CCNc1cc(N2CCc3ccccc3CC2)nc(-c2ccccn2)n1 [GSK-J4] + CCNC(=O)c1noc(-c2cc(C(C)C)c(O)cc2O)c1-c1ccc(CN2CCOCC2)cc1 [Luminespib] (partner 0.01 µM)
Outline: (§1)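 A single step with final 0.05% Triton X-100, 1% formaldehyde and 1 ug/ml Hoechst fixed the cells and stained nuclei 5 days after treatment. Lung cancer cell lines in 1536-well plates had been treated by pin tool the day after seeding with one drug alone or a fixed anchor-drug dose plus five library-drug doses (not always all listed) in √10 steps, and nuclei were counted on 4× images. Relative viability is the ratio of nuclei in treated wells to nuclei in vehicle wells, taken as the median of duplicate plates.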

AZ3146 + OSI-027 = compound: CN1CCC(CC1)OC2=CC(=C(C=C2)NC3=NC=C4C(=N3)N(C(=O)N4C)C5CCCC5)OC [AZ3146] + COc1cccc2cc(-c3nc([C@H]4CC[C@H](C(=O)O)CC4)n4ncnc(N)c34)[nH]c12 [OSI-027] (partner 0.5 µM)
Outline: as §1

GSK-J4 + Pictilisib = compound: CCOC(=O)CCNc1cc(N2CCc3ccccc3CC2)nc(-c2ccccn2)n1 [GSK-J4] + CS(=O)(=O)N1CCN(Cc2cc3nc(-c4cccc5[nH]ncc45)nc(N4CCOCC4)c3s2)CC1 [Pictilisib] (partner 1 µM)
Outline: as §1

AZ3146 + AZD7762 = compound: CN1CCC(CC1)OC2=CC(=C(C=C2)NC3=NC=C4C(=N3)N(C(=O)N4C)C5CCCC5)OC [AZ3146] + NC(=O)Nc1cc(-c2cccc(F)c2)sc1C(=O)N[C@H]1CCCNC1 [AZD7762] (partner 0.2 µM)
Outline: as §1

Cell Line	relative viability (GSK-J4 + Luminespib; first compound 0.5 µM)	relative viability (GSK-J4 + Luminespib; first compound 1.581 µM)	relative viability (GSK-J4 + Luminespib; first compound 5 µM)	relative viability (GSK-J4 + Luminespib; first compound 15.81 µM)	relative viability (GSK-J4 + Luminespib; first compound 50 µM)	relative viability (AZ3146 + OSI-027; first compound 0.08 µM)	relative viability (AZ3146 + OSI-027; first compound 0.253 µM)	relative viability (AZ3146 + OSI-027; first compound 0.8 µM)	relative viability (AZ3146 + OSI-027; first compound 2.53 µM)	relative viability (AZ3146 + OSI-027; first compound 8 µM)	relative viability (GSK-J4 + Pictilisib; first compound 0.5 µM)	relative viability (GSK-J4 + Pictilisib; first compound 1.581 µM)	relative viability (GSK-J4 + Pictilisib; first compound 5 µM)	relative viability (GSK-J4 + Pictilisib; first compound 15.81 µM)	relative viability (GSK-J4 + Pictilisib; first compound 50 µM)	relative viability (AZ3146 + AZD7762; first compound 0.08 µM)	relative viability (AZ3146 + AZD7762; first compound 0.253 µM)	relative viability (AZ3146 + AZD7762; first compound 0.8 µM)	relative viability (AZ3146 + AZD7762; first compound 2.53 µM)	relative viability (AZ3146 + AZD7762; first compound 8 µM)
NCI-H647	0.29	0.125	0.235	0.166	0.125	0.55	0.656	0.567	0.684	0.697	0.576	0.479	0.272	0.426	0.353	0.272	0.541	0.486	0.342	0.326
NCI-H650	0.688	0.682	0.597	0.749	0.519	0.504	0.461	0.359	0.588	0.506	0.839	0.798	0.789	0.779	0.468	0.915	0.652	0.952	1.06	1.21
NCI-H727	0.299	0.402	0.244	0.336	0.369	0.674	0.56	0.595	0.671	0.413	0.379		0.691	0.427	0.18	0.642	0.575	0.562	0.568	0.57
NCI-H838	0.299	0.335		0.247	0.168	0.38	0.432	0.341	0.325	0.373	0.624	0.407		0.467	0.433	0.931	0.921	0.844	0.963	0.698
NCI-H1355	0.691	0.701	0.77	0.513	0.651	0.396	0.395	0.324	0.441	0.345	0.521	0.302	0.397	0.418	0.478	0.621	0.738	0.676	0.672	0.551
NCI-H1395	0.529	0.621	0.62	0.723	0.536	0.569	0.533	0.564	0.701	0.633	0.578	0.524	0.544	0.573	0.518	0.352	0.389		0.379	0.4
NCI-H1437	1.05	1.1	1.1	1.03	0.739	0.813	0.876	0.821	0.875	0.995	0.454	0.352	0.385	0.435	0.165	0.887	1.2	1.09	1.14	1.1
NCI-H1651	0.703	0.728	0.727	0.701	0.625	0.657	0.745	0.66	0.692	0.639	0.578	0.416	0.668	0.639	0.389	0.277	0.382	0.351	0.398	0.385

— the supplement of paper PMC10307832
